Source: patent EP0012729A1, “Therapeutic compositions containing as active compound a substituted acetic acid or its salt” ("IBIS" ISTITUTO BIOCHIMICO SPERIMENTALE S.p.A., priority 1978, dated 1980)

What was measured:
Wistar rats = experiment: Choleretic activity in the rat, bile fistula method; assay type: in vivo; conditions: for ml of bile flow ± s.e.: second series
From the text: It is known that the primary effect of a choleretic agent is to increase the bile flow and the quantity of solid substances excreted with the bile. A good choleretic must provide this effect in a sufficiently intense and prolonged manner. In addition, as in the case of all drugs, it must have low acute toxicity and good general tolerability, but in particular must be free from toxic effects on the organ on which it is required to act, i.e. the liver, whether this is in a normal or pathological state. The analysis of the new product in comparison with the best known products for the same therapeutic use has therefore been focused on these aspects. The choleretic activity of the new product has been determined in the rat by using the bile fistula method. Wistar rats of both sexes and having a weight of between 180 and 240 g were used.
The animals, which were kept fasting for 12 hours but with free access to water, were narcotised by ethyl urethane in a dose of 1 g/kg by intra peritoneal or intramuscular injection.
After binding the animals to the retention bed, a median laparatomy was carried out, and when the bile duct had been isolated a cannula needle was inserted into it. A polythene tube was then inserted into those ani mals which were to receive the products intraduodenally, after which a su ture was carried out on the abdominal wall, and the bile was allowed to discharge for 30 minutes after inserting the cannula in the bile duct, so as to allow the discharge to become normal. The bile was then collec ted for one hour.
Having determined the volume of bile discharged during this first hour of collection (base volume), the products under examination were administered at the predetermined doses and by the predetermined methods. The bile excreted by the individual animals was then collected over each hour for a further six hours.
During the experiments, the animals were kept at ambient temperature of about 22°C, and at regular intervals of two hours received 10 ml/kg of physiological solution s.c.
The liquids were administered at a temperature of 37°C.
The bile flow and cholesterol excretion were determined on those bile fractions excreted by the animals over each hour starting from the base hour until the end of the experiment
The dry residue (R.So) was determined on the bile fraction excreted during the base hour and on the total bile fractions excreted during the sub sequent hours. For practical reasons, the determination of the dry residue and of the cholesterol (carried out by the Sperry & Webb method) were carried out on the pool of bile excreted by the entire group of animals subjected to the same treatment instead of on the bile fractions excreted by the individual animals (which was sometimes insufficient for determining the cholesterol).
In compiling the graphs, the differences between the choleresis in the treated animals and that in the controls was calculated over the considered time intervals, and expressed as a percentage of the base choleresis. For this calculation, the following formula was used: [formula] where Cn and C' represent the choleresis (in ml/kg/h for the bile flow, and in mg/kg/h for the dry residue) determined over the considered time interval for the group of treated animals and the group of controls respectively. Cb and C'b represent the base choleresis in the group of treated animals and group of controls respectively.
This index was calculated as the time for halving the maximum choleresis increase recorded under their effect.

[1] = Acute toxicity (DL50) in mus musculus; conditions: in vivo
From the text: The DL50 for the α-methyl-α-(3,4-dihydro-1-naphtyl)acetic acid (1.620) determined in the mus musculus had the following values: • DL50 by oral administration = 1663 (1451-1905) mg/kg • DL50 by i.^p. administration = 1383 (1226-1559) mg/kg

[2] = Acute toxicity (DL50) in the rat; conditions: in vivo
From the text: The determination in the rat gave the following values: • DL50 by oral administration = 1720 (1520-1921) mg/kg • DL50 by i.p. administration = 1339 (1270-1744) mg/kg

rat = experiment: Prolonged administration for 180 consecutive days, tolerability; assay type: in vivo; conditions: 50 mg/kg/die for 180 consecutive days
[3] = ip, read-out: DL50 by i.p. administration
[4] = oral, read-out: DL50 by oral administration

For `CC(C(=O)O)C1=CCCc2ccccc21` (stereo not drawn) [1.620, α-methyl-α-(3,4-dihydro-1-naphthyl)-acetic acid], the Flow (Wistar rats; 25 mg/kg i.d., 0 (base hour)) was 2,66±0,16 ml/kg/h, the Flow (Wistar rats; 25 mg/kg i.d., 1 h) was 4,24±0,25 ml/kg/h and the Flow (Wistar rats; 25 mg/kg i.d., 2 h) was 3,21±0,10 ml/kg/h. For the same compound, the Flow (Wistar rats; 25 mg/kg i.d., 3 h) was 2,89±0,10 ml/kg/h, the Flow (Wistar rats; 25 mg/kg i.d., 4 h) was 2,44±0,15 ml/kg/h and the Flow (Wistar rats; 25 mg/kg i.d., 5 h) was 2,20±0,14 ml/kg/h. For the same compound, the Flow (Wistar rats; 25 mg/kg i.d., 6 h) was 1,68±0,05 ml/kg/h, the Flow (Wistar rats; 25 mg/kg p.o., 0 (base hour)) was 3,05±0,33 ml/kg/h and the Flow (Wistar rats; 25 mg/kg p.o., 1h) was 3,89±0,47 ml/kg/h. The Flow (Wistar rats; 25 mg/kg p.o., 2h) was 3,13±0,24 ml/kg/h, the Flow (Wistar rats; 25 mg/kg p.o., 3h) was 2,84±0,21 ml/kg/h and the Flow (Wistar rats; 25 mg/kg p.o., 4h) was 2,35±0,19 ml/kg/h. For the same compound, the Flow (Wistar rats; 25 mg/kg p.o., 5h) was 2,05±0,21 ml/kg/h, the Flow (Wistar rats; 25 mg/kg p.o., 6h) was 1,87±0,39 ml/kg/h and the Flow (Wistar rats; 50 mg/kg i.d., 0 (base hour)) was 2,04±0,11 ml/kg/h. For the same compound, the Flow (Wistar rats; 50 mg/kg i.d., 1 h) was 3,90±0,28 ml/kg/h, the Flow (Wistar rats; 50 mg/kg i.d., 2 h) was 3,57±0,16 ml/kg/h and the Flow (Wistar rats; 50 mg/kg i.d., 3 h) was 2,69±0,09 ml/kg/h. The Flow (Wistar rats; 50 mg/kg i.d., 4 h) was 2,20±0,07 ml/kg/h, the Flow (Wistar rats; 50 mg/kg i.d., 5 h) was 2,00±0,10 ml/kg/h and the Flow (Wistar rats; 50 mg/kg i.d., 6 h) was 1,63±0,08 ml/kg/h. The Flow (Wistar rats; 50 mg/kg p.o., 0 (base hour)) was 2,76±0,09 ml/kg/h, the Flow (Wistar rats; 50 mg/kg p.o., 1h) was 4,90±0,16 ml/kg/h and the Flow (Wistar rats; 50 mg/kg p.o., 2h) was 3,74±0,13 ml/kg/h. The Flow (Wistar rats; 50 mg/kg p.o., 3h) was 3,34±0,13 ml/kg/h, the Flow (Wistar rats; 50 mg/kg p.o., 4h) was 2,73±0,07 ml/kg/h and the Flow (Wistar rats; 50 mg/kg p.o., 5h) was 2,60±0,08 ml/kg/h. The Flow (Wistar rats; 50 mg/kg p.o., 6h) was 2,25±0,09 ml/kg/h, the Flow (Wistar rats; 100 mg/kg i.d., 0 (base hour)) was 2,53±0,09 ml/kg/h and the Flow (Wistar rats; 100 mg/kg i.d., 1 h) was 6,61±0,27 ml/kg/h. For the same compound, the Flow (Wistar rats; 100 mg/kg i.d., 2 h) was 5,94±0,23 ml/kg/h, the Flow (Wistar rats; 100 mg/kg i.d., 3 h) was 4,12±0,14 ml/kg/h and the Flow (Wistar rats; 100 mg/kg i.d., 4 h) was 3,23±0,07 ml/kg/h. The Flow (Wistar rats; 100 mg/kg i.d., 5 h) was 2,74±0,06 ml/kg/h, the Flow (Wistar rats; 100 mg/kg i.d., 6 h) was 2,23±0,06 ml/kg/h and the Flow (Wistar rats; 100 mg/kg p.o., 0 (base hour)) was 2,40±0,23 ml/kg/h. The Flow (Wistar rats; 100 mg/kg p.o., 1h) was 4,44±0,28 ml/kg/h, the Flow (Wistar rats; 100 mg/kg p.o., 2h) was 4,95±0,39 ml/kg/h and the Flow (Wistar rats; 100 mg/kg p.o., 3h) was 4,10±0,32 ml/kg/h. The Flow (Wistar rats; 100 mg/kg p.o., 4h) was 3,10±0,31 ml/kg/h, the Flow (Wistar rats; 100 mg/kg p.o., 5h) was 2,79±0,23 ml/kg/h and the Flow (Wistar rats; 100 mg/kg p.o., 6h) was 2,33±0.25 ml/kg/h. The “Peak choleresis time of appearance” value (Wistar rats; 200 mg/kg p.o. (dose given for 1620 only)) was 2nd hour, the “Peak choleresis % increase” value (Wistar rats; 200 mg/kg p.o. (dose given for 1620 only), increase over controls as percentage of base choleresis) was 135% and the Duration index (Wistar rats; 200 mg/kg p.o. (dose given for 1620 only), time for halving the maximum choleresis increase) was 240'. The Flow (Wistar rats; 200 mg/kg p.o., 0 (base hour)) was 2,46±0,12 ml/kg/h, the Flow (Wistar rats; 200 mg/kg p.o., 1h) was 5,53±0,30 ml/kg/h and the Flow (Wistar rats; 200 mg/kg p.o., 2h) was 5,78±0,29 ml/kg/h. The Flow (Wistar rats; 200 mg/kg p.o., 3h) was 5,02±0,34 ml/kg/h, the Flow (Wistar rats; 200 mg/kg p.o., 4h) was 4,77±0,57 ml/kg/h and the Flow (Wistar rats; 200 mg/kg p.o., 5h) was 4,19±0,25 ml/kg/h. The Flow (Wistar rats; 200 mg/kg p.o., 6h) was 3,39±0,14 ml/kg/h, the “ml of bile flow ± s.e.” value (Wistar rats; oral by gastric probe 25 mg/kg, 0 (base values)) was 2,6±0,20 ml and the “ml of bile flow ± s.e.” value (Wistar rats; oral by gastric probe 25 mg/kg, 1 h) was 3,2±0,14 ml. The “ml of bile flow ± s.e.” value (Wistar rats; oral by gastric probe 25 mg/kg, 2 h) was 2,7±0,10 ml, the “ml of bile flow ± s.e.” value (Wistar rats; oral by gastric probe 25 mg/kg, 3 h) was 2,6±0,21 ml and the “ml of bile flow ± s.e.” value (Wistar rats; oral by gastric probe 25 mg/kg, 4 h) was 1,9±0,11 ml. The “ml of bile flow ± s.e.” value (Wistar rats; oral by gastric probe 25 mg/kg, 5 h) was 1,6±0,20 ml, the “ml of bile flow ± s.e.” value (Wistar rats; oral by gastric probe 25 mg/kg, 6 h) was 1,6±0,21 ml and the “ml of bile flow ± s.e.” value (Wistar rats; oral by gastric probe 50 mg/kg, 0 (base values)) was 2,8±0,19 ml. The “ml of bile flow ± s.e.” value (Wistar rats; oral by gastric probe 50 mg/kg, 1 h) was 3,7±0,31 ml, the “ml of bile flow ± s.e.” value (Wistar rats; oral by gastric probe 50 mg/kg, 2 h) was 3,4±0,22 ml and the “ml of bile flow ± s.e.” value (Wistar rats; oral by gastric probe 50 mg/kg, 3 h) was 3,2±0,19 ml. For the same compound, the “ml of bile flow ± s.e.” value (Wistar rats; oral by gastric probe 50 mg/kg, 4 h) was 3,0±0,18 ml, the “ml of bile flow ± s.e.” value (Wistar rats; oral by gastric probe 50 mg/kg, 5 h) was 2,8±0,14 ml and the “ml of bile flow ± s.e.” value (Wistar rats; oral by gastric probe 50 mg/kg, 6 h) was 2,2±0,18 ml. The “ml of bile flow ± s.e.” value (Wistar rats; oral by gastric probe 100 mg/kg, 0 (base values)) was 2,5±0,16 ml, the “ml of bile flow ± s.e.” value (Wistar rats; oral by gastric probe 100 mg/kg, 1 h) was 4,8±0,26 ml and the “ml of bile flow ± s.e.” value (Wistar rats; oral by gastric probe 100 mg/kg, 2 h) was 3,7±0,31 ml. The “ml of bile flow ± s.e.” value (Wistar rats; oral by gastric probe 100 mg/kg, 3 h) was 3,5±0,20 ml, the “ml of bile flow ± s.e.” value (Wistar rats; oral by gastric probe 100 mg/kg, 4 h) was 3,2±0,32 ml and the “ml of bile flow ± s.e.” value (Wistar rats; oral by gastric probe 100 mg/kg, 5 h) was 2,9±0,22 ml. The “ml of bile flow ± s.e.” value (Wistar rats; oral by gastric probe 100 mg/kg, 6 h) was 2,7±0,23 ml, the LD50 [1, 3] was 1380 mg/kg and the LD50 [1, 4] was 1660 mg/kg. The LD50 [2, 3] was 1340 mg/kg, the LD50 [2, 4] was 1720 mg/kg and the “Tolerability on prolonged administration” value (rat) was “well tolerated”.
